Tests used:
[1] = tested on: milk somatic cell concentration (SCC); assay: Milk somatic cell concentration (SCC) after intramammary infusion at drying-off; assay type: in vivo, dairy cows
Method: (§1) Experimental Design: At dry-off all quarters of even numbered cows (n=39) were infused with antibiotics (Cefa-Dri (Fort Dodge Animal Health, Fort Dodge, Iowa 50501) containing 300 mg cephapirin […] in peanut oil) approved for use by FDA. All quarters of odd numbered cows (n=40) were infused with dextran (total dose 100 mg DEAE-dextran (Sigma Chemical Co. St. Louis, Mo.)) in 1 ml of sterile filtered distilled water and suspended in 9 ml of peanut oil (Sigma).
Mammary quarters of 4 dairy cows at drying-off were infused with either 100 mg of DEAE-dextran, peanut oil, or were uninfused. Secretions were collected at 0, 24, 48, 72, 96, and 120 hours post infusion for determination of milk somatic cell concentration.

[2] = tested on: intramammary infections (mastitis); assay: Intramammary infection status before dry-off and after calving, all 4 quarters infused at dry-off; assay type: in vivo, cows; conditions: for new infections (quarters infected during the dry period) / old infections (quarters remaining infected after calving): group total after calving; for infected quarters at dry-off: baseline before infusion
Method: as §1

[3] = Milk yield in the subsequent lactation after infusion at dry-off; assay type: in vivo, cows; conditions: for Mean yearly milk yield: mean per cow of the group
Method: as §1

Substance: diethylaminoethyl-dextran
- milk somatic cell count ([1]; 0 hour, quarters of 4 dairy cows infused with 100 mg at drying-off): 129000 mL⁻¹
- milk somatic cell count ([1]; 24 hours post infusion, 100 mg per quarter at drying-off): 19,591 ×10^3/ml
- milk somatic cell count ([1]; 72 hours post infusion, 100 mg per quarter at drying-off): 8,000 ×10^3/ml
- milk somatic cell concentration (SCC) increased to ([1]; total dose 100 mg in 1 ml water suspended in 9 ml peanut oil (FIG. 1)): one million
- clinical symptoms (swelling, elevated body temperature, redness of udder, pain) ([1]; total dose 100 mg intramammary): no clinical symptoms
- new infections (quarters infected during the dry period) [2]: 26 new infections quarters
- old infections (quarters remaining infected after calving) [2]: 17 old infections quarters
- new infections (quarters infected during the dry period) ([2]; listed as dextran): 26 quarters
- old infections (quarters remaining infected after calving) ([2]; listed as dextran): 17 quarters
- infected quarters at dry-off ([2]; group total): 38 quarters infected
- infected quarters at dry-off ([2]; group total, listed as dextran): 38 quarters
- total infections after calving ([2]; group total, old plus new): 43 infections
- net gain of intramammary infections ([2]; total after calving compared to infected quarters at dry-off): 5 infections
- milk yield per cow more than cows that received antibiotics [3]: approximately 700 pounds
- Mean yearly milk yield [3]: Mean 26029 pounds
- Mean yearly milk yield ([3]; listed as dextran): 26,029 pounds
